Where two headings read alike, the source gives them in different places.
Legend:
B16 murine melanoma = test: Tissue distribution in C57 BL6 mice bearing B16; format: in vivo, mouse; settings: mouse, in vivo
Protocol: (§1) The study of the tissue distribution of the ^125 I labelled compounds was performed in mice bearing grafted melanomas (cf. autoradiograms above). […] The animals are sacrificed at different time intervals of 1 to 24 hours after the injection. The blood is collected and the principal organs are excised. Aliquots are weighed and the radioactivity of the samples is measured in a […] 1191 counter (analytic tracer). The counting yield for iodine 125 is 60%. The results are expressed: as a percentage of the injected dose bound per g of tissue (% ID/g); in the form of the ratios [formula] This ratio reflects more precisely the selectivity of a molecule for an organ (tables 2, 4, 6, 8, 10 and 12).

[1] = Tissue distribution in C57 BL6 mice bearing B16; format: in vivo, mouse; settings: mouse, iv, 3 umol/animal
Protocol: as §1

[2] = tested on: Beu melanic human melanoma; test: Autoradiograms, nu/nu SSCUP nude mice bearing Beu; format: in vivo
Protocol: The autoradiograms are carried out in mice bearing grafted melanomas:
b. nu/nu SSCUP nudes bearing heterotransplants of melanic (Beu) or amelanic (Dau) human melanomas).
The animals bearing grafted tumors receive the labelled compounds in the form of the hydrochloride in saline solution (3.7 to 5×10^5 Bq/animal) in a caudal vein. At different time intervals after the administration of the compounds (from 15 minutes to 24 hours) the mice are anesthetized with ether and plunged into liquid nitrogen.
30 μm sections, parallel to a sagittal plane, are prepared in a freezing microtome (TS 260, SLEE) according to the protocol described by Ullberg.

[3] = intestine, read-out: intestine % ID/g
[4] = kidney, read-out: kidney % ID/g
[5] = muscle, read-out: muscle % ID/g
[6] = pancreas, read-out: pancreas % ID/g
[7] = plasma, read-out: plasma % ID/g
[8] = spleen, read-out: spleen % ID/g
[9] = stomach, read-out: stomach % ID/g
[10] = submaxillary glands, read-out: submaxillary glands % ID/g

## CCN(CC)CCNC(=O)c1ccc(I)cc1 [Derivative A, N-(2-diethylaminoethyl) 4-iodo benzamide]
B16 murine melanoma
  marker of the B16 murine melanoma: markers of the B16 murine melanoma
[1]; blood, read-out: blood % ID/g
  tissue uptake at 1 h: 1.04 %ID/g
  tissue uptake at 2 h: 0.74 %ID/g
  tissue uptake at 4 h: 0.54 %ID/g
  tissue uptake at 24 h: 0.022 %ID/g
  tissue uptake at 12 h: 0.09 %ID/g
[1]; blood, 6 h, read-out: blood % ID/g
  tissue uptake at 6 h: 0.21 %ID/g
[1]; blood, 8 h, read-out: blood % ID/g
  tissue uptake at 8 h: 0.34 %ID/g
[1]; brain, read-out: brain % ID/g
  tissue uptake at 1 h: 2.67 %ID/g
  tissue uptake at 2 h: 1.4 %ID/g
  tissue uptake at 4 h: 0.7 %ID/g
  tissue uptake at 24 h: 0.005 %ID/g
  tissue uptake at 12 h: 0.04 %ID/g
[1]; brain, 6 h, read-out: brain % ID/g
  tissue uptake at 6 h: 0.32 %ID/g
[1]; brain, 8 h, read-out: brain % ID/g
  tissue uptake at 8 h: 0.18 %ID/g
[1]; eye, read-out: eye % ID/g
  tissue uptake at 1 h: 13.6 %ID/g
  tissue uptake at 2 h: 13 %ID/g
  tissue uptake at 4 h: 12.4 %ID/g
  tissue uptake at 24 h: 6.65 %ID/g
  tissue uptake at 12 h: 8.49 %ID/g
[1]; eye, 6 h, read-out: eye % ID/g
  tissue uptake at 6 h: 12.1 %ID/g
[1]; eye, 8 h, read-out: eye % ID/g
  tissue uptake at 8 h: 8.07 %ID/g
[1]; [3]
  tissue uptake at 1 h: 5.22 %ID/g
  tissue uptake at 2 h: 3.94 %ID/g
  tissue uptake at 4 h: 2.8 %ID/g
  tissue uptake at 12 h: 0.14 %ID/g
  tissue uptake at 24 h: 0.02 %ID/g
[1]; intestine, 6 h, read-out: intestine % ID/g
  tissue uptake at 6 h: 0.75 %ID/g
[1]; intestine, 8 h, read-out: intestine % ID/g
  tissue uptake at 8 h: 0.71 %ID/g
[1]; [4]
  tissue uptake at 1 h: 8.56 %ID/g
  tissue uptake at 2 h: 5.93 %ID/g
  tissue uptake at 4 h: 3.67 %ID/g
  tissue uptake at 24 h: 0.07 %ID/g
  tissue uptake at 12 h: 0.19 %ID/g
[1]; kidney, 6 h, read-out: kidney % ID/g
  tissue uptake at 6 h: 1.1 %ID/g
[1]; kidney, 8 h, read-out: kidney % ID/g
  tissue uptake at 8 h: 0.84 %ID/g
[1]; liver, read-out: liver % ID/g
  tissue uptake at 1 h: 6.04 %ID/g
  tissue uptake at 2 h: 4.02 %ID/g
  tissue uptake at 4 h: 2.46 %ID/g
  tissue uptake at 24 h: 0.16 %ID/g
  tissue uptake at 12 h: 0.25 %ID/g
[1]; liver, 6 h, read-out: liver % ID/g
  tissue uptake at 6 h: 0.95 %ID/g
[1]; liver, 8 h, read-out: liver % ID/g
  tissue uptake at 8 h: 0.8 %ID/g
[1]; lung, read-out: lungs % ID/g
  tissue uptake at 1 h: 11 %ID/g
  tissue uptake at 2 h: 6.12 %ID/g
  tissue uptake at 4 h: 4.29 %ID/g
  tissue uptake at 12 h: 0.2 %ID/g
  tissue uptake at 24 h: 0.05 %ID/g
[1]; lung, 6 h, read-out: lungs % ID/g
  tissue uptake at 6 h: 1.99 %ID/g
[1]; lung, 8 h, read-out: lungs % ID/g
  tissue uptake at 8 h: 1.11 %ID/g
[1]; lung, as from the 6th hour, mice bearing melanic melanomas, read-out: pulmonary binding
  tissue uptake at 6 h: < 1 %ID/g
[1]; [5]
  tissue uptake at 1 h: 1.55 %ID/g
  tissue uptake at 2 h: 1.13 %ID/g
  tissue uptake at 4 h: 0.66 %ID/g
  tissue uptake at 24 h: 0.009 %ID/g
  tissue uptake at 12 h: 0.03 %ID/g
[1]; muscle, 6 h, read-out: muscle % ID/g
  tissue uptake at 6 h: 0.19 %ID/g
[1]; muscle, 8 h, read-out: muscle % ID/g
  tissue uptake at 8 h: 0.14 %ID/g
[1]; [6]
  tissue uptake at 1 h: 5.34 %ID/g
  tissue uptake at 2 h: 3.42 %ID/g
  tissue uptake at 4 h: 2.01 %ID/g
  tissue uptake at 12 h: 0.13 %ID/g
  tissue uptake at 24 h: 0.04 %ID/g
[1]; pancreas, 6 h, read-out: pancreas % ID/g
  tissue uptake at 6 h: 0.55 %ID/g
[1]; pancreas, 8 h, read-out: pancreas % ID/g
  tissue uptake at 8 h: 0.41 %ID/g
[1]; [7]
  tissue uptake at 1 h: 0.82 %ID/g
  tissue uptake at 2 h: 0.55 %ID/g
  tissue uptake at 4 h: 0.45 %ID/g
  tissue uptake at 24 h: 0.024 %ID/g
  tissue uptake at 12 h: 0.11 %ID/g
[1]; plasma, 6 h, read-out: plasma % ID/g
  tissue uptake at 6 h: 0.21 %ID/g
[1]; plasma, 8 h, read-out: plasma % ID/g
  tissue uptake at 8 h: 0.38 %ID/g
[1]; [8]
  tissue uptake at 1 h: 5.91 %ID/g
  tissue uptake at 2 h: 2.94 %ID/g
  tissue uptake at 4 h: 1.36 %ID/g
  tissue uptake at 12 h: 0.16 %ID/g
  tissue uptake at 24 h: 0.02 %ID/g
[1]; spleen, 6 h, read-out: spleen % ID/g
  tissue uptake at 6 h: 0.56 %ID/g
[1]; spleen, 8 h, read-out: spleen % ID/g
  tissue uptake at 8 h: 0.46 %ID/g
[1]; [9]
  tissue uptake at 1 h: 6.03 %ID/g
  tissue uptake at 2 h: 3.87 %ID/g
  tissue uptake at 4 h: 2.35 %ID/g
  tissue uptake at 12 h: 0.19 %ID/g
  tissue uptake at 24 h: 0.07 %ID/g
[1]; stomach, 6 h, read-out: stomach % ID/g
  tissue uptake at 6 h: 1.14 %ID/g
[1]; stomach, 8 h, read-out: stomach % ID/g
  tissue uptake at 8 h: 1.65 %ID/g
[1]; [10]
  tissue uptake at 1 h: 6.06 %ID/g
  tissue uptake at 2 h: 3.6 %ID/g
  tissue uptake at 4 h: 3.68 %ID/g
  tissue uptake at 12 h: 0.44 %ID/g
  tissue uptake at 24 h: 0.09 %ID/g
[1]; submaxillary glands, 6 h, read-out: submaxillary glands % ID/g
  tissue uptake at 6 h: 1.12 %ID/g
[1]; submaxillary glands, 8 h, read-out: submaxillary glands % ID/g
  tissue uptake at 8 h: 0.98 %ID/g
[1]; tumor, read-out: tumor % ID/g
  tissue uptake at 1 h: 6.75 %ID/g
  tissue uptake at 2 h: 6.04 %ID/g
  tissue uptake at 4 h: 4.82 %ID/g
  tissue uptake at 24 h: 0.79 %ID/g
  tissue uptake at 12 h: 1.01 %ID/g
[1]; tumor, 6 h, read-out: tumor % ID/g
  tissue uptake at 6 h: 3.53 %ID/g
[1]; tumor, up to 8 hours, B16, read-out: intratumoral concentration
  tissue uptake at 8 h: > 1 %ID/g
[1]; tumor, 8 h, read-out: tumor % ID/g
  tissue uptake at 8 h: 3.42 %ID/g
[2]; 1 to 4 h after i.v.
  darkening of the film at the tumor: Identical images
[2]; 24 h after i.v.
  tumor visibility on autoradiogram: we can no longer see darkening of the film
